Counter-ions that a name gives are not always drawn. Like-named read-outs stand apart in the source and are kept apart here.
Experiment: Chiral plasma pharmacokinetics of MDMA and its phase I and II metabolites after controlled MDMA administration
Assay type: in vivo, human
Conditions: for AUC(0-t) / Cmax / half-life / Tmax: human, plasma; for change in AUC24 after bupropion pretreatment / change in Cmax after bupropion pretreatment: bupropion+MDMA vs placebo+MDMA, unsigned = increase; for reduction of Cmax by bupropion: metabolite stereoisomers, bupropion pretreatment vs placebo (abstract)
Experimental: Blood plasma samples were analyzed non-stereoselectively as reported previously and reanalyzed for the present report using liquid chromatography-mass spectrometry/mass spectrometry after chiral derivatization with Marfey’s reagent as described previously. The method was fully validated, including selectivity, recovery, matrix effects, bias and imprecision, stability, and limit of quantification.

[1] = both sexes, oral, 125 mg, placebo+MDMA (125 mg), CYP2D6 EM, n=13, plasma, read-out: AUC0-24h S
[2] = both sexes, oral, 125 mg, placebo+MDMA (125 mg), CYP2D6 EM, n=13, plasma, read-out: Cmax S
[3] = both sexes, oral, 125 mg, placebo+MDMA (125 mg), CYP2D6 EM, n=13, plasma, read-out: t1/2 S (converted)
[4] = both sexes, oral, 125 mg, placebo+MDMA (125 mg), CYP2D6 EM, n=13, plasma, read-out: tmax S
[5] = both sexes, oral, bupropion+MDMA (125 mg), CYP2D6 EM (EM/Bup), n=13, plasma, read-out: AUC0-24h S
[6] = both sexes, oral, bupropion+MDMA (125 mg), CYP2D6 EM (EM/Bup), n=13, plasma, read-out: Cmax S
[7] = both sexes, oral, bupropion+MDMA (125 mg), CYP2D6 EM (EM/Bup), n=13, plasma, read-out: t1/2 S (converted)
[8] = both sexes, oral, bupropion+MDMA (125 mg), CYP2D6 EM (EM/Bup), n=13, plasma, read-out: tmax S
[9] = bupropion+MDMA (125 mg), CYP2D6 EM (EM/Bup), n=13, plasma
[10] = bupropion-pretreated CYP2D6 EMs
[11] = im, placebo+MDMA (125 mg), CYP2D6 IM, n=3, plasma, read-out: AUC0-24h S
[12] = im, placebo+MDMA (125 mg), CYP2D6 IM, n=3, plasma, read-out: Cmax S
[13] = im, placebo+MDMA (125 mg), CYP2D6 IM, n=3, plasma, read-out: t1/2 S (converted)
[14] = im, placebo+MDMA (125 mg), CYP2D6 IM, n=3, plasma, read-out: tmax S
[15] = placebo+MDMA (125 mg), CYP2D6 EM, n=13, plasma
[16] = placebo+MDMA (125 mg), CYP2D6 IM, n=3, plasma
[17] = placebo-pretreated EMs, same-configuration MDMA enantiomer
[18] = both sexes, oral, 125 mg, placebo+MDMA (125 mg), CYP2D6 EM, n=13, plasma, read-out: AUC0-24h R
[19] = both sexes, oral, 125 mg, placebo+MDMA (125 mg), CYP2D6 EM, n=13, plasma, read-out: tmax R
[20] = both sexes, oral, bupropion+MDMA (125 mg), CYP2D6 EM (EM/Bup), n=13, plasma, read-out: AUC0-24h R
[21] = both sexes, oral, bupropion+MDMA (125 mg), CYP2D6 EM (EM/Bup), n=13, plasma, read-out: Cmax R
[22] = both sexes, oral, bupropion+MDMA (125 mg), CYP2D6 EM (EM/Bup), n=13, plasma, read-out: tmax R
[23] = both sexes, oral, placebo+MDMA (125 mg), CYP2D6 EM, n=13, plasma, read-out: Cmax R
[24] = both sexes, oral, bupropion+MDMA (125 mg), CYP2D6 EM (EM/Bup), n=13, plasma, read-out: t1/2 R (converted)
[25] = both sexes, oral, placebo+MDMA (125 mg), CYP2D6 EM, n=13, plasma, read-out: t1/2 R (converted)
[26] = bupropion vs placebo pretreatment
[27] = bupropion vs placebo pretreatment, CYP2D6 EMs

Structure (SMILES) | metabolite/MDMA ratio, mean constant (after approximately 2 h) (IMs) | metabolite/MDMA ratio, mean initial (highest, first hour) (IMs) | AUC(0-t) [1] [µM·h] | Cmax [2] [nM] | half-life [3] [h] | Tmax [4] [h] | AUC(0-t) [5] [µM·h] | Cmax [6] [nM] | half-life [7] [h] | Tmax [8] [h] | AUCtotal S [9] | change in AUC24 after bupropion pretreatment (CYP2D6 EMs) [%] | change in Cmax after bupropion pretreatment (CYP2D6 EMs) [%] | tonset (time of first detection), mean [10] [h] | metabolite/MDMA ratio, mean constant (after approximately 2 h) (bupropion-pretreated EMs) | metabolite/MDMA ratio, mean initial (highest, first hour) (bupropion-pretreated EMs) | AUC(0-t) [11] [µM·h] | Cmax [12] [nM] | metabolite/MDMA ratio, mean constant (after approximately 2 h) (placebo-pretreated EMs) | metabolite/MDMA ratio, mean initial (highest, first hour) [17] | also measured
CN[C@@H](C)Cc1ccc(OS(=O)(=O)O)c(OC)c1 [S-HMMA sulfate] | 0.28 | 2.3 | 4.2 | 410 | 6.6 | 1.6 | 1.6 | 110 | 11.1 | 2.8 | 2.2 (0.75) μmol/l*h-1 | -61 | -72 | 0.56 | 0.21 | 0.26 | 1.7 | 140 | 0.86 | 17.7 | half-life [13]: 6.9 h; Tmax [14]: 2.5 h; AUCtotal S [15]: 4.6 (1.2) μmol/l*h-1; AUCtotal S [16]: 1.9 (0.34) μmol/l*h-1; tonset (time of first detection), mean (placebo-pretreated CYP2D6 EMs): 0.33 h
CNC(C)Cc1ccc(O)c(OS(=O)(=O)O)c1 (stereo not drawn) [DHMA 3-sulfate] | – | – | – | – | – | – | – | – | – | – | – | – | – | – | – | – | – | – | – | – | reduction of Cmax by bupropion: approximately 40%
CC(N)Cc1ccc2c(c1)OCO2 (stereo not drawn) [R-MDA, 3,4-methylenedioxyamphetamine] | – | – | – | – | – | – | – | – | – | – | – | -26 | -27 | – | – | – | – | – | – | – | AUC(0-t) [18]: 0.26 µM·h; Tmax [19]: 12.5 h; AUC(0-t) [20]: 0.19 µM·h; Cmax [21]: 10 nM; Tmax [22]: 14.9 h; Cmax [23]: 14 nM
CN[C@H](C)Cc1ccc(OS(=O)(=O)O)c(OC)c1 [R-HMMA sulfate] | 0.13 | 1.9 | – | – | – | – | – | – | – | – | – | -62 | -62 | 0.53 | 0.13 | 0.31 | – | – | 0.54 | 15.8 | AUC(0-t) [18]: 5.5 µM·h; Tmax [19]: 2 h; AUC(0-t) [20]: 2.1 µM·h; Cmax [21]: 140 nM; half-life [24]: 34.4 h; Tmax [22]: 4.2 h; Cmax [23]: 370 nM; half-life [25]: 17.5 h; AUCtotal R [9]: 7.1 (4.6) μmol/l*h-1; AUCtotal R [15]: 9.6 (2.7) μmol/l*h-1; AUCtotal R [16]: 3.4 (1.3) μmol/l*h-1; tonset (time of first detection), mean (placebo-pretreated CYP2D6 EMs): 0.33 h
CNC(C)Cc1ccc(OS(=O)(=O)O)c(OC)c1 (stereo not drawn) [HMMA sulfate] | – | – | – | – | – | – | – | – | – | – | – | – | – | – | – | – | – | – | – | – | change of R/S ratio for Cmax after bupropion pretreatment [26]: +21%; reduction of Cmax by bupropion: approximately 40%
CC(N)Cc1ccc2c(c1)OCO2 (stereo not drawn) [S-MDA, 3,4-methylenedioxyamphetamine] | – | – | 0.61 | 41 | 9.2 | 4.6 | 0.49 | 31 | 11.1 | 5.2 | 0.69 (0.17) μmol/l*h-1 | -20 | -24 | – | – | – | 0.65 | 42 | – | – | half-life [13]: 10.6 h; Tmax [14]: 4.4 h; AUCtotal S [15]: 0.76 (0.27) μmol/l*h-1; AUCtotal S [16]: 0.87 (0.31) μmol/l*h-1
CNC(C)Cc1ccc(OC2OC(C(=O)O)C(O)C(O)C2O)c(OC)c1 (stereo not drawn) [R-HMMA glucuronide] | 0.05 | 0.05 | – | – | – | – | – | – | – | – | – | -71 | -77 | 0.73 | 0.05 | 0.09 | – | – | 0.40 | 1.3 | AUC(0-t) [18]: 3.3 µM·h; Tmax [19]: 3.7 h; AUC(0-t) [20]: 0.96 µM·h; Cmax [21]: 49 nM; half-life [24]: 31.7 h; Tmax [22]: 7.6 h; Cmax [23]: 210 nM; half-life [25]: 16 h; AUCtotal R [9]: 2.3 (1.5) μmol/l*h-1; AUCtotal R [15]: 5.5 (4.3) μmol/l*h-1; AUCtotal R [16]: 2.0 (1.7) μmol/l*h-1; tonset (time of first detection), mean (placebo-pretreated CYP2D6 EMs): 0.41 h
CNC(C)Cc1ccc(OC2OC(C(=O)O)C(O)C(O)C2O)c(OC)c1 (stereo not drawn) [S-HMMA glucuronide] | 0.20 | 0.30 | 5.2 | 490 | 6.1 | 2.9 | 1.3 | 88 | 9 | 4.9 | 1.7 (1.0) μmol/l*h-1 | -74 | -82 | 0.71 | 0.20 | 0.10 | 1.3 | 99 | 1.3 | 5.6 | half-life [13]: 7.1 h; Tmax [14]: 4 h; AUCtotal S [15]: 5.5 (3.9) μmol/l*h-1; AUCtotal S [16]: 1.5 (0.83) μmol/l*h-1; tonset (time of first detection), mean (placebo-pretreated CYP2D6 EMs): 0.38 h
CN[C@@H](C)Cc1ccc2c(c1)OCO2 [S-MDMA, 3,4-methylenedioxymethamphetamine] | – | – | 4.9 | 560 | 4.5 | 2.1 | 6.8 | 650 | 5.7 | 2.5 | 7.2 (1.7) μmol/l*h-1 | 38 | 16 | – | – | – | 6.8 | 720 | – | – | prolongation of t1/2 after bupropion pretreatment [27]: 26%; reduction of Cl/F after bupropion pretreatment [27]: -31%; CL/F S [9]: 50.5 (13.5) l/h; half-life [13]: 5.1 h; Tmax [14]: 2.3 h; AUCtotal S [15]: 5.1 (1.5) μmol/l*h-1; CL/F S [15]: 72.8 (26.2) l/h; AUCtotal S [16]: 7.1 (2.0) μmol/l*h-1; CL/F S [16]: 50.4 (12.6) l/h
CN[C@H](C)Cc1ccc(O)c(OS(=O)(=O)O)c1 [R-DHMA 3-sulfate] | 0.10 | 1.9 | – | – | – | – | – | – | – | – | – | -61 | -68 | – | 0.10 | 0.4 | – | – | 0.22 | 9.9 | AUC(0-t) [18]: 2.4 µM·h; Tmax [19]: 2.8 h; AUC(0-t) [20]: 0.96 µM·h; Cmax [21]: 50 nM; half-life [24]: 46.2 h; Tmax [22]: 3.8 h; Cmax [23]: 150 nM; half-life [25]: 20.2 h; AUCtotal R [9]: 3.1 (2.1) μmol/l*h-1; AUCtotal R [15]: 4.7 (2.5) μmol/l*h-1; AUCtotal R [16]: 2.6 (2.4) μmol/l*h-1
CC(N)Cc1ccc2c(c1)OCO2 (stereo not drawn) [MDA, 3,4-methylenedioxyamphetamine] | – | – | – | – | – | – | – | – | – | – | – | – | – | – | – | – | – | – | – | – | change of R/S ratio for AUC24 after bupropion pretreatment [26]: -17%; change of R/S ratio for Cmax after bupropion pretreatment [26]: -19%
CNC(C)Cc1ccc(OS(=O)(=O)O)c(O)c1 (stereo not drawn) [DHMA 4-sulfate] | – | – | – | – | – | – | – | – | – | – | – | – | – | – | – | – | – | – | – | – | reduction of Cmax by bupropion: approximately 40%
CNC(C)Cc1ccc(OC2OC(C(=O)O)C(O)C(O)C2O)c(OC)c1 (stereo not drawn) [HMMA glucuronide] | – | – | – | – | – | – | – | – | – | – | – | – | – | – | – | – | – | – | – | – | reduction of Cmax by bupropion: approximately 40%

Source: article PMC4788153, “Impact of Cytochrome P450 2D6 Function on the Chiral Blood Plasma Pharmacokinetics of 3,4-Methylenedioxymethamphetamine (MDMA) and Its Phase I and II Metabolites in Humans” (PLoS ONE, 2016)
